From ChEMBL document CHEMBL1153472 (Bioorg Med Chem Lett, 2009)

Tests used:
[1] = target: Beta-1 adrenergic receptor (Homo sapiens, UniProt P08588); experiment: Agonist activity at human recombinant adrenergic beta-1 receptor expressed in CHO cells assessed as stimulation of cAMP level after 1 hr by enzyme immunoassay; format: functional, cell-based
[2] = target: Beta-3 adrenergic receptor (Homo sapiens, UniProt P13945); experiment: Agonist activity at human recombinant adrenergic beta3 receptor expressed in CHO cells assessed as stimulation of cAMP level after 1 hr by enzyme immunoassay; format: functional, cell-based
Sequence of Beta-3 adrenergic receptor (Homo sapiens, UniProt P13945) (P13945 whole entry): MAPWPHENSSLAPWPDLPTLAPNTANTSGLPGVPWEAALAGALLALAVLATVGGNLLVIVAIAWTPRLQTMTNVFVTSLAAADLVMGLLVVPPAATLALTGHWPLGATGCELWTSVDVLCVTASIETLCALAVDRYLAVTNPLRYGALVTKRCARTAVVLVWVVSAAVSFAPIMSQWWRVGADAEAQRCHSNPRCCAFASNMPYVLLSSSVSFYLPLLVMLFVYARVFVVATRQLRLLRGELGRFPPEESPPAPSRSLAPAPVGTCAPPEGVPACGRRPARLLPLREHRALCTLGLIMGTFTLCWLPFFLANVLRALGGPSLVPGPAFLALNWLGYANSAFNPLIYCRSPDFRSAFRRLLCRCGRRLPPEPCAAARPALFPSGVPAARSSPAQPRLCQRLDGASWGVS

[3] = AUC (0 to 24 hrs) in po dosed dog; format: ADME, organism-based, Canis lupus familiaris; parameters: time < 24 hr, route oral; conditions: plasma
[4] = Cmax in po dosed dog; format: ADME, organism-based, Canis lupus familiaris; parameters: route oral; conditions: in vivo
[5] = Oral bioavailability in dog; format: ADME, organism-based, Canis lupus familiaris; conditions: in vivo
[6] = Total clearance in iv dosed dog; format: ADME, organism-based, Canis lupus familiaris; conditions: in vivo
[7] = Half life in iv dosed dog; format: ADME, organism-based, Canis lupus familiaris; conditions: in vivo
[8] = target: Beta-2 adrenergic receptor (Homo sapiens, UniProt P07550); experiment: Agonist activity at human recombinant adrenergic beta2 receptor expressed in CHO cells assessed as stimulation of cAMP level after 1 hr by enzyme immunoassay; format: functional, cell-based
Sequence of Beta-2 adrenergic receptor (P07550 whole entry): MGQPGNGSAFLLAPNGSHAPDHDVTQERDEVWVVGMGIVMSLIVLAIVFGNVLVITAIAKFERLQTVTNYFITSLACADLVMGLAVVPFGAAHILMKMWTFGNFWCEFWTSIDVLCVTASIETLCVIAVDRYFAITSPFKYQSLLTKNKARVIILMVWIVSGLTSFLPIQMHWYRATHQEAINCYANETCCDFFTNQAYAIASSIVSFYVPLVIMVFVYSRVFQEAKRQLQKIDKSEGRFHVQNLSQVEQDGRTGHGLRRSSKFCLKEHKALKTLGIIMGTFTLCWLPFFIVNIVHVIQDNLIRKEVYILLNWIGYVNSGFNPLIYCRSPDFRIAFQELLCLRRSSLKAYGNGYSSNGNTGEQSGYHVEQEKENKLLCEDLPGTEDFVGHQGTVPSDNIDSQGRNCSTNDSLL

[9] = target: Beta-3 adrenergic receptor (Canis lupus familiaris, UniProt O02662); experiment: Agonist activity at dog recombinant adrenergic beta3 receptor expressed in CHO cells assessed as stimulation of cAMP level after 1 hr by enzyme immunoassay; format: functional, cell-based
Sequence of Beta-3 adrenergic receptor (Canis lupus familiaris, UniProt O02662) (O02662 whole entry): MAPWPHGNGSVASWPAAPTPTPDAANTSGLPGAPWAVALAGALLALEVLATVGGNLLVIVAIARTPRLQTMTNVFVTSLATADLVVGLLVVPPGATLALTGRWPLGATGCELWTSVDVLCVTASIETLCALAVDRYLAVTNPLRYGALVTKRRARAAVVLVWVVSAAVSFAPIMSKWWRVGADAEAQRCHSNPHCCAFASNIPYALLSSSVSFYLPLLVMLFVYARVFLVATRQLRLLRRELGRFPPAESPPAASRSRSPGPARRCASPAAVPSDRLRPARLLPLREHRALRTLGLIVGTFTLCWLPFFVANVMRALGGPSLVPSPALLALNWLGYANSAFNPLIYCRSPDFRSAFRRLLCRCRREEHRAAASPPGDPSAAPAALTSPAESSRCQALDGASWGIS

[10] = Protein binding in dog; format: ADME, organism-based, Canis lupus familiaris; conditions: in vivo, read-out: PB (converted)
Canis familiaris = experiment: Inhibition of carbachol-induced increase in intravesical pressure in intraduodenally dosed Beagle dog overactive bladder model administered after carbachol challenge followed by reinjection of carbachol 30 mins post drug dose measured for 180 mins; format: functional; conditions: Canis lupus familiaris, intraduodenal

Sequence of Beta-1 adrenergic receptor (P08588 whole entry): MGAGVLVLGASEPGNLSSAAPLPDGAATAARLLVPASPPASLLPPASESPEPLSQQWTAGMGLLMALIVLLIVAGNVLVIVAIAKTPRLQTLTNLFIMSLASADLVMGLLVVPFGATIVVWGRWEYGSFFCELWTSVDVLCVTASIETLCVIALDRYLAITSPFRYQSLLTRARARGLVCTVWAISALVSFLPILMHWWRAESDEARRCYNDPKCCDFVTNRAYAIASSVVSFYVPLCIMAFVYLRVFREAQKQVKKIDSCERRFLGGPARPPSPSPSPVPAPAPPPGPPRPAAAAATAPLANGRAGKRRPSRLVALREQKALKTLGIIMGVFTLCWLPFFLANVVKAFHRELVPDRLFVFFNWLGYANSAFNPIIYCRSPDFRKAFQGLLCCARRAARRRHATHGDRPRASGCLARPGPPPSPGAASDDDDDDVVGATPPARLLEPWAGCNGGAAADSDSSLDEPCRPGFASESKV

SMILES	EC50 [1] [nM]	EC50 [2] [nM]	AUC(0-t) at 24 h [3] [ng·h/mL]	Cmax [4] [ng/mL]	bioavailability [5] [%]	clearance [6] [mL/min/kg]	half-life [7] [h]	EC50 [8] [nM]	EC50 [9] [nM]	fraction unbound [10]	ED50 (Canis familiaris) [mg/kg]
CS(=O)(=O)NC(=O)c1ccc(-c2ccc(CCNC[C@H](O)c3ccc(N)cc3)cc2)cc1OC1CCCCC1	> 1000	–	–	–	–	–	–	–	–	–	–
CS(=O)(=O)NC(=O)c1ccc(-c2ccc(CCNC[C@H](O)c3cccc(N)c3)cc2)cc1OC1CCCCC1	> 1000	1.2	79.3	6.1	–	–	–	–	–	–	–
CC(C)Oc1cc(-c2ccc(CCNC[C@H](O)c3ccc(N)cc3)cc2)ccc1C(=O)NS(C)(=O)=O	> 1000	–	–	–	–	–	–	–	–	–	–
CC(C)Oc1cc(-c2ccc(CCNC[C@H](O)c3cccc(N)c3)cc2)ccc1C(=O)NS(C)(=O)=O	> 1000	6	143	17.2	46	5.1	4.9	–	–	–	–
CC(=O)Nc1ccc([C@@H](O)CNCCc2ccc(-c3ccc(C(=O)NS(C)(=O)=O)c(OC4CCCCC4)c3)cc2)cn1	> 1000	0.23	86.5	16.2	43	8.9	1.8	–	–	–	–
C[C@H](NCCc1ccc(-c2ccc(C(=O)NS(C)(=O)=O)c(OC3CCCCC3)c2)cc1)[C@H](O)c1ccc(O)cc1	110	0.35	39.7	5.3	25	11	3.5	> 10000	–	–	–
CC(C)Oc1cc(-c2ccc(CCN[C@@H](C)[C@H](O)c3cccc(O)c3)cc2)ccc1C(=O)NS(C)(=O)=O	130	0.044	7.3	2.9	–	–	–	–	–	–	–
CC(C)Oc1cc(-c2ccc(CCNC[C@H](O)c3ccc(O)c(NS(C)(=O)=O)c3)cc2)ccc1C(=O)NS(C)(=O)=O	150	0.26	4.4	1.1	–	–	–	–	–	–	–

Further lines, with some results ahead:

EC50 [1] [nM]	EC50 [2] [nM]	AUC(0-t) at 24 h [3] [ng·h/mL]	Cmax [4] [ng/mL]	bioavailability [5] [%]	clearance [6] [mL/min/kg]	half-life [7] [h]	EC50 [8] [nM]	EC50 [9] [nM]	fraction unbound [10]	SMILES	ED50 (Canis familiaris) [mg/kg]
> 1000	28	–	–	–	–	–	–	–	–	COc1ccc([C@@H](O)[C@H](C)NCCc2ccc(-c3ccc(C(=O)NS(C)(=O)=O)c(OC4CCCCC4)c3)cc2)cc1	–
73	0.1	–	–	–	–	–	–	–	–	CC(C)Cc1cc(-c2ccc(C[C@@H](C)NC[C@H](O)c3ccccc3)cc2)ccc1C(=O)NS(C)(=O)=O	–
> 1000	0.82	654	59.1	95	2.4	5	–	–	–	CS(=O)(=O)NC(=O)c1ccc(-c2ccc(C[C@@H](CO)NC[C@H](O)c3ccccc3)cc2)cc1OC1CCCCC1	–
290	0.16	117	23.2	56	7.9	6.7	> 10000	1	0.1	CC(C)Oc1cc(-c2ccc(CCN[C@@H](C)[C@H](O)c3ccc(O)cc3)cc2)ccc1C(=O)NS(C)(=O)=O	5.9
